Legend:
[1] = test system: genomic DNA from the bone marrow of TG mouse; assay: Mutation analysis of mouse bone marrow genomic DNA by sequencing with information on complementary strands; format: in vivo, mouse (C57BL/6JJmsSlc-Tg (gpt delta)); settings: ENU 150 mg/kg/day intraperitoneally for 5 days, n=2
Method: Male TG mice which were 7 to 9 weeks old at initiation of administration were used. ENU (produced by Toronto Research Chemicals, Inc.) was dissolved in saline to a concentration of 15.0 mg/mL. By using a plastic syringe and a 25 G injection needle, […] was intraperitoneally administered to the mice once per day (ENU 150 mg/kg/day) for 5 days (ENU group). Saline was administered to a control group. Seven days after the final administration, the animals were each euthanized to resect the femur, and genomic DNA was extracted from the bone marrow by using a REcoverEase DNA Isolation Kit (produced by Agilent Technologies) in accordance with the recommended protocol. The double-stranded DNA concentration of the resulting DNA was measured by using a Qubit3.0 Fluorometer (produced by Thermo Fisher Scientific) with a Qubit™ dsDNA BR Assay Kit attached thereto. […]
Each of the libraries prepared in 3) was subjected to sequencing by using a HiSeq 2500 (produced by Illumina, Inc.), where the read length was set to 2*100 bp. […]
Edit of raw read sequences acquired through sequencing, extraction of information on complementary strands, and mutation analysis were performed by using the procedure of 5) in Example 2 in accordance with the analysis flow illustrated above in Schematic Diagrams 3 and 4. […]

gpt gene = assay: gpt-assay, gene mutation frequency (OECD TG488); format: in vivo, mouse (C57BL/6JJmsSlc-Tg (gpt delta)); settings: bone marrow
Method: Male TG mice which were 7 to 9 weeks old at initiation of administration were used. ENU (produced by Toronto Research Chemicals, Inc.) was dissolved in saline to a concentration of 15.0 mg/mL. By using a plastic syringe and a 25 G injection needle, […] was intraperitoneally administered to the mice once per day (ENU 150 mg/kg/day) for 5 days (ENU group). Saline was administered to a control group. Seven days after the final administration, the animals were each euthanized to resect the femur, and genomic DNA was extracted from the bone marrow by using a REcoverEase DNA Isolation Kit (produced by Agilent Technologies) in accordance with the recommended protocol. The double-stranded DNA concentration of the resulting DNA was measured by using a Qubit3.0 Fluorometer (produced by Thermo Fisher Scientific) with a Qubit™ dsDNA BR Assay Kit attached thereto.
DNA was extracted from the bone marrow of each of the mice obtained in 1) by using phenol/chloroform. For the extract DNA, gene mutation frequency was calculated by using the gpt gene introduced into each TG mouse in accordance with OECD Guidelines for the Testing of Chemicals 488 (OECD TG488) (gpt-assay). […] From the number of colonies formed on the selective medium (mutant colonies) and the number of colonies formed on the medium for titer determination (total colonies), mutation frequency (*10^−6) was calculated. […]

CCN(N=O)C(N)=O [ENU, ethylnitrosourea]
Frequencies of A:T>T:A, A:T>G:C, and G:C>A:T versus control group [1]: significantly higher
Mean Mutant Frequency (gpt-assay) (gpt gene; ENU 150 mg/kg/day intraperitoneally for 5 days, n=4): 126.33 *10^−6
Gene mutation frequency (gpt-assay) versus control group (gpt gene; ENU 150 mg/kg/day): Significant increase
